Drawing on patent publication US20210387966A1, “2-AMINO-N-HETEROARYL-NICOTINAMIDES AS NAV1.8 INHIBITORS” (Merck Sharp & Dohme Corp., priority 2018, published 2021), this text covers IC50 for 23 molecules.

The structures appear in SMILES notation.

This test deals with T1, human Nav1.8 channels (Homo sapiens, UniProt Q9Y5Y9).
T1 construct: expressed in transfected cells
T1 sequence (Q9Y5Y9 whole entry): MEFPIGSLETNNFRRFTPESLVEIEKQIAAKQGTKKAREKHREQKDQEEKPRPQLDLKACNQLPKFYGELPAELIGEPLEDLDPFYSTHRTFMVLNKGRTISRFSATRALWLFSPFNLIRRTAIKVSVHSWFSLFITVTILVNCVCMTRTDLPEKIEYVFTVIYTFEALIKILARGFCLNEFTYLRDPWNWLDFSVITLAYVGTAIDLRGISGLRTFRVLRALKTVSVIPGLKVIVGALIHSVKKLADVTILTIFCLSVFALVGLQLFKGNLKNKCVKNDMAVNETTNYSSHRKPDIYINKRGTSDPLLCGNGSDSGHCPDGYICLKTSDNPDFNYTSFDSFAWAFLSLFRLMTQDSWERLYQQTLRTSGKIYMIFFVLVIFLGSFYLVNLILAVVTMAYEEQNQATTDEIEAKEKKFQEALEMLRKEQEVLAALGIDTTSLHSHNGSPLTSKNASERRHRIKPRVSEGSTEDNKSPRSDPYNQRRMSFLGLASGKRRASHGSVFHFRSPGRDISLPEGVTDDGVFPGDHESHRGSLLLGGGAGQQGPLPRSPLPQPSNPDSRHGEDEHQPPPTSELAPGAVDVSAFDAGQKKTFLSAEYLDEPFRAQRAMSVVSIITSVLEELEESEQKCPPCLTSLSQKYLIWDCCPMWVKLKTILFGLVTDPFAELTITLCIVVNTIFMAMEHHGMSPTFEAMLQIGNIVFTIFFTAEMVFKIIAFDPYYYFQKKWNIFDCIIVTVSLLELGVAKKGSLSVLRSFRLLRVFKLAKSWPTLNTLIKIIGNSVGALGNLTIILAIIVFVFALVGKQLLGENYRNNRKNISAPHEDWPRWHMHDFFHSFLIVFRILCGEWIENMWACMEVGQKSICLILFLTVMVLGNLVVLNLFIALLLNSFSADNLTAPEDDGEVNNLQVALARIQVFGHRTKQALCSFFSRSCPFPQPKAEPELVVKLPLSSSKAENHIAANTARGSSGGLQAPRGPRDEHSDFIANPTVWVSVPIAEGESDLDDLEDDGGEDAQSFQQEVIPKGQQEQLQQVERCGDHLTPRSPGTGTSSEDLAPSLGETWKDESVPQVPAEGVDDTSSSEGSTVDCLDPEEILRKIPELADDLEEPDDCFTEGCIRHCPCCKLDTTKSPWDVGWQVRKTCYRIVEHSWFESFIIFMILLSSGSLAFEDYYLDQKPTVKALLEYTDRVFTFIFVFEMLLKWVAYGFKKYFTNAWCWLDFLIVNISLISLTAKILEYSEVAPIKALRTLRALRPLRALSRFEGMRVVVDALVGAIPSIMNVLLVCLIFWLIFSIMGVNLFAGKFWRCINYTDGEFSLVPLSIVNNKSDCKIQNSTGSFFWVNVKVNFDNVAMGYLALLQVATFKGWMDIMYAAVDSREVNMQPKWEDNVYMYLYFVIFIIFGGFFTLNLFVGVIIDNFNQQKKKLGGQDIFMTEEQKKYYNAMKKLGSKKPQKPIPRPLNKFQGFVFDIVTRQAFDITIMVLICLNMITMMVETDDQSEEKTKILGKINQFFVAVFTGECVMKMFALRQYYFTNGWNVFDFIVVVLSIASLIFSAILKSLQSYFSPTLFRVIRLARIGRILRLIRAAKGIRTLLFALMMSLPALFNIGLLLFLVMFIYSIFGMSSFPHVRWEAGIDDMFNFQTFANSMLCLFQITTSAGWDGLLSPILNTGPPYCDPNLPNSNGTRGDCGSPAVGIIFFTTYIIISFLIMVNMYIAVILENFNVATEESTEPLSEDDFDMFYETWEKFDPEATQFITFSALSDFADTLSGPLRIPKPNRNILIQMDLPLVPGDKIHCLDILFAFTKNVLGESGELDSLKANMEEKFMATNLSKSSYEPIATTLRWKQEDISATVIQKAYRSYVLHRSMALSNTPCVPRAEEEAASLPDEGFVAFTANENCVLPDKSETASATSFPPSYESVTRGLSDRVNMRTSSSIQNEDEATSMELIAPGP
Briefly: Nav1.8 Qube automated patch-clamp assay. Format: cell-based. The following applies: human Nav1.8 stably expressed in HEK 293 cells; whole-cell voltage clamp, room temperature; resting or inactivated state not specified; read-out: IC50 values (nM) for Examples in the Nav1.8 Qube Assay. In a few lines: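 Whole-cell patch clamp at room temperature on HEK293 cells stably expressing human Nav1.8. A 1 Hz train of ten 20 ms pulses to 10 mV from −90 mV holding, with −67 mV repolarization, was applied; first- and tenth-pulse peak currents gave resting and inactivated-state IC50s by Hill fitting.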
Background: Patch clamp records ionic current or voltage across a cell membrane.
As a reminder, the IC50 is the midpoint of a concentration-inhibition curve. As for `O=C(Nc1nccc(O)n1)c1cc(C(F)(F)F)cnc1N1CCC(F)(F)CC1` [Example 2, 2-(4,4-difluoropiperidin-1-yl)-N-(4-hydroxypyrimidin-2-yl)-5-(trifluoromethyl)nicotinamide], the IC50 was determined as 2190 nM.

Regarding `NS(=O)(=O)c1cc(NC(=O)c2cc(C(F)(F)F)cnc2N2CCCC(Cl)(Cl)CC2)ccn1` [Example 51, 2-(4,4-Dichloroazepan-1-yl)-N-(2-sulfamoylpyridin-4-yl)-5-(trifluoromethyl)nicotinamide], the IC50 stood at 6.6 nM. As for `COc1ccc(C(=O)Nc2ccnc(S(N)(=O)=O)c2)c(N2CCCC(F)(F)CC2)n1` [Example 142, 2-(4,4-difluoroazepan-1-yl)-6-methoxy-N-(2-sulfamoylpyridin-4-yl)nicotinamide], the IC50 is 29 nM.

On to `CS(=O)(=O)c1cc(NC(=O)c2cc(C(F)(F)F)cnc2N2C[C@@H]3[C@H](C2)C(F)(F)C3(F)F)ccn1` [Example 151, N-(2-methylsulfonyl-4-pyridyl)-2-[(1R,5S)-6,6,7,7-tetrafluoro-3-azabicyclo[3.2.0]heptan-3-yl]-5-(trifluoro-methyl)pyridine-3-carboxamide], for which the IC50 was 89 nM. As for `CC1CN(c2ncc(C(F)(F)F)cc2C(=O)Nc2ccnc(S(C)(=O)=O)c2)CCC1(F)F` (single isomer, unassigned) [Example 148, 2-[(3R or 3S)-4,4-difluoro-3-methyl-1-piperidyl]-N-(2-methylsulfonyl-4-pyridyl)-5-(trifluoro-methyl)pyridine-3-carboxamide], the figure is 26 nM. As for `NS(=O)(=O)c1cc(NC(=O)c2cc(C(F)(F)F)cnc2N2CCCC(c3cc(F)cc(F)c3)C2)ccn1` (centres unmarked) [Example 81, 2-[3-(3,5-difluorophenyl)-1-piperidyl]-N-(2-sulfamoyl-4-pyridyl)-5-(trifluoromethyl)pyridine-3-carboxamide], the figure is 39 nM; as for `O=C(Nc1cncc(C(F)(F)F)c1)c1cc(C(F)(F)F)cnc1N1CCCCCC1` [Example 200, 2-(azepan-1-yl)-5-(trifluoromethyl)-N-[5-(trifluoromethyl)-3-pyridyl]pyridine-3-carboxamide], 9670 nM. The same measure for `C[C@H]1CN(c2ncc(C(F)(F)F)cc2C(=O)Nc2ccnc(S(N)(=O)=O)c2)C[C@H](C(F)(F)F)O1` [Example 103, 2-((2S,6R)-2-methyl-6-(trifluoromethyl)morpholino)-N-(2-sulfamoylpyridin-4-yl)-5-(trifluoromethyl)nicotinamide]: 166 nM; for `Cc1ccc(C(=O)Nc2cncc(S(N)(=O)=O)c2)c(N2CCC(F)(F)CC2)n1` [Example 9, 2-(4,4-difluoro-1-piperidyl)-6-methyl-N-(5-sulfamoyl-3-pyridyl)pyridine-3-carboxamide]: 816 nM.

Turning to `CC1CN(c2ncc(C(F)(F)F)cc2C(=O)Nc2ccnc(S(N)(=O)=O)c2)CCC1(Cl)Cl` (single isomer, unassigned) [Example 49, (R or S)-2-(4,4-dichloro-3-methylpiperidin-1-yl)-N-(2-sulfamoylpyridin-4-yl)-5-(trifluoromethy)nicotinamide], the IC50 was 1.4 nM. As for `N#CC1CCN(c2ncc(C(F)(F)F)cc2C(=O)Nc2ccnc(S(N)(=O)=O)c2)C1` (single isomer, unassigned) [Example 129, (S or R)-2-(3-cyanopyrrolidin-1-yl)-N-(2-sulfamoylpyridin-4-yl)-5-(trifluoromethyl)nicotinamide], the figure is 753 nM; as for `C[C@@H]1CN(c2ncc(C(F)(F)F)cc2C(=O)Nc2ccnc(C#N)c2)C[C@H](C)C1(F)F` [Example 150, N-(2-cyano-4-pyridyl)-2-[(3S,5R)-4,4-difluoro-3,5-dimethyl-1-piperidyl]-5-(tri-fluoromethyl)pyridine-3-carboxamide], 77 nM. Take `C[C@@H]1CN(c2ncc(C(F)(F)F)cc2C(=O)Nc2ccnc(S(N)(=O)=O)c2)CCC1(F)F` (single isomer, unassigned) [Example 48]: the IC50 turned out to be 12 nM. As to `CC1(C)CN(c2ncc(C(F)(F)F)cc2C(=O)Nc2ccnc(S(N)(=O)=O)c2)CCN1CC(F)(F)F` [Example 87, 2-[3,3-dimethyl-4-(2,2,2-trifluoroethyl)piperazin-1-yl]-N-(2-sulfamoyl-4-pyridyl)-5-(trifluoromethyl)pyridine-3-carboxamide], the IC50 is 223 nM. Turning to `NS(=O)(=O)c1cc(NC(=O)c2cc(C3CC3)c(C(F)(F)F)nc2N2CCC(F)(F)CC2)ccn1` [Example 181, 5-cyclopropyl-2-(4,4-difluoropiperidin-1-yl)-N-(2-sulfamoylpyridin-4-yl)-6-(trifluoromethyl)nicotinamide], the IC50 turned out to be 17 nM. As for `NS(=O)(=O)c1cccc(NC(=O)c2cc(C(F)(F)F)cnc2N2CCCCCC2)n1` [Example 141, 2-(azepan-1-yl)-N-(6-sulfamoyl-2-pyridyl)-5-(trifluoromethyl)pyridine-3-carboxamide], the half-maximal inhibitory concentration (IC50) is 245 nM. As for `CCS(=O)(=O)c1cc(NC(=O)c2cc(C(F)(F)F)cnc2N2CCCCCC2)ccn1` [Example 198, 2-(azepan-1-yl)-N-(2-ethylsulfonyl-4-pyridyl)-5-(trifluoro-methyl)pyridine-3-carboxamide], the figure is 425 nM; as for `NS(=O)(=O)c1cc(NC(=O)c2cc(C(F)(F)F)cnc2N2CCC(Cl)(Cl)CC2)ccn1` [Example 29, 2-(4,4-Dichloropiperidin-1-yl)-N-(2-sulfamoylpyridin-4-yl)-5-(trifluoromethyl)nicotinamide], 31 nM; as for `NS(=O)(=O)c1cc(NC(=O)c2cc(C(F)(F)F)cnc2N2CC(C(F)(F)F)C2)ccn1` [Example 93, N-(2-sulfamoyl-4-pyridyl)-5-(trifluoromethyl)-2-[3-(trifluoromethyl)azetidin-1-yl]pyridine-3-carboxamide], 707 nM. As for `CC1CN(c2ncc(C(F)(F)F)cc2C(=O)Nc2ccnc(C#N)c2)CCC1(F)F` (single isomer, unassigned) [Example 154, (S or R)-N-(2-cyanopyridin-4-yl)-2-(4,4-difluoro-3-methylpiperidin-1-yl)-5-(trifluoro-methyl)nicotinamide], the figure is 84 nM; as for `NS(=O)(=O)c1cc(NC(=O)c2cc(-n3cccn3)cnc2N2CCC(F)(F)CC2)ccn1` [Example 207, 2-(4,4-difluoropiperidin-1-yl)-5-(1H-pyrazol-1-yl)-N-(2-sulfamoylpyridin-4-yl)nicotinamide], 1080 nM; as for `NS(=O)(=O)c1cc(NC(=O)c2cc(C(F)(F)F)cnc2N2CC3CCC3(C(F)(F)F)C2)ccn1` (single isomer, unassigned) [Example 58, N-(2-sulfamoyl-4-pyridyl)-5-(trifluoromethyl)-2-[(1S,5S or 1R,5R)-1-(trifluoromethyl)-3-azabicyclo[3.2.0]heptan-3-yl]pyridin-3-carboxamide], 10 nM. As for `CC1CCCN(c2ncc(C(F)(F)F)cc2C(=O)Nc2ccnc(S(N)(=O)=O)c2)C1` (single isomer, unassigned) [Example 57, (R or S)-2-(3-methylpiperidin-1-yl)-N-(2-sulfamoylpyridin-4-yl)-5-(trifluoromethyl)nicotinamide], the figure is 31 nM.
